Test results: BindingDB's records for doi:10.1016/j.bmcl.2003.08.082 (The University of Huddersfield, 2003)

Target: Beta-lactamase (Enterobacter cloacae, UniProt P05364)
Assay: Inhibitor activity against Beta-lactamase, derived from the Gram negative bacteria Enterobacter cloacae at pH 7
Details: read-out: kon (M-1-s-1)

Beta-lactamase, sequence (P05364 whole entry): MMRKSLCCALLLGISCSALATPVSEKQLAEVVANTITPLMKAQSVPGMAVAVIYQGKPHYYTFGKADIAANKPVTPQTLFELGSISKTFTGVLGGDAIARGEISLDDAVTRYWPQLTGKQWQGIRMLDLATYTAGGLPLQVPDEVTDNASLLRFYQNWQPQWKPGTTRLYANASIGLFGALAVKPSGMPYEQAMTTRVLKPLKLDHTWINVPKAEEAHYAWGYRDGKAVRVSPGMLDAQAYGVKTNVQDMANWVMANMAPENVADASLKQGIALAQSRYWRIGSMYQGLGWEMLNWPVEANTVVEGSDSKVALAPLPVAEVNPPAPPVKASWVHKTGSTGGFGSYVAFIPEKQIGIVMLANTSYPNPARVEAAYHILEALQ

SMILES | kon [M⁻¹ s⁻¹]
O=C(c1ccccc1)N1CCS1(=O)=O | 163
CC(C)C1CN(C(=O)c2ccccc2)S1(=O)=O (configuration not stated) | 0.07
